US20220057383A1, “USE OF BIOMARKERS TO EVALUATE THE EFFICACY OF A COMPOSITION IN REDUCING THE EFFECTS OF CANCER THERAPEUTICS ON SKIN” (Johnson & Johnson Consumer Inc., priority 2019, published 2022)
Where two headings read alike, the source gives them in different places.

Columns and labels:
[1] = human, in vivo; cited from earlier work
[2] = tested on: RHE keratinocytes; assay: Transcriptomic analysis (gene expression profiling) of RHE keratinocytes treated with afatinib; type: cell-based, human; conditions: 100 nM afatinib; for number of genes down-regulated compared to control / number of genes up-regulated compared to control: cut off 50%
[3] = tested on: Reconstructed Human Epidermis (RHE) tissues
[4] = 100 nM afatinib vs control, cut off 1.2-fold, overall

Afatinib
appearance of granulomas versus other EGFRi [1]: more frequent appearance of granulomas | expression of genes related to inflammation (Th1 response) [2]: did not show any increase | genes involved in innate immunity (S100 family, SPRR2B, DEFB1) [2]: negatively regulated | number of genes down-regulated compared to control ([2]; 6 h): 170 | number of genes up-regulated compared to control ([2]; 6 h): 201 | expression of KRT2, KRT9, KRT13, KRT15 and Late Cornified Envelop genes (LCE2A, LCE1B, LCE2B, LCE1C, LCE2D) ([2]; 24 h): increase | expression of metallothionein panel (MT1E, MT1L, MT1H L1, MT1X, MT1B, MT1A) ([2]; 24 h): decreased | number of genes down-regulated compared to control ([2]; 24 h): 335 | number of genes up-regulated compared to control ([2]; 24 h): 281 | expression of CYP (CYP4B1, CYP3A7, CYP3A5, CYP2J2, CYP4A11, CYP1A1, CYP4F22) ([2]; 24 h and 72 h): decreased | expression of CYP (Inc-CYP24A1-1, CYP27A1, CYP4F12) ([2]; 24 h and 72 h): increased | expression of SIRT4 ([2]; 72 h): increased | expression of antioxidant enzymes PRDX2 and PRDX3 ([2]; 72 h): decreased | expression of metallothionein panel (MT1E, MT1L, MT1H L1, MT1X, MT1B, MT1A) ([2]; 72 h): increased | genes related to IL4 and IL13 signaling (Th2 response) ([2]; cluster C2): over representation | genes related to the PI3K/AKT pathway ([2]; cluster C6): upregulation | number of dysregulated genes ([2]; cut-off 50% fold-change, different time points): 2,182 | inflammasome response via TLR, NLR and IL1 families ([2]; protein phosphorylation assay and gene expression array): decreased | FOXO3 phosphorylation ([3]; 100 nM afatinib): decreased | cellular senescence pathway, enrichment based on change of protein phosphorylation status ([3]; 100 nM afatinib): significant enrichment | number of phosphoproteins with changed phosphorylation status ([3]; 100 nM afatinib vs control, cut off 1.2-fold change (more than 20%), all time points): 62 | number of proteins with a significant decrease of phosphorylation status [3, 4]: 18 | number of proteins with a significant increase of phosphorylation status [3, 4]: 44 | number of proteins showing decreased phosphorylation compared to control ([3]; 100 nM afatinib, 20 min): 3 | number of proteins showing increased phosphorylation compared to control ([3]; 100 nM afatinib, 20 min): 6 | PI3K-AKT pathway, Set Enrichment Analysis of phosphorylation status ([3]; 100 nM afatinib, 24 h): significant enrichment | number of proteins showing decreased phosphorylation compared to control ([3]; 100 nM afatinib, 24 h): 23 | number of proteins showing increased phosphorylation compared to control ([3]; 100 nM afatinib, 24 h): 18 | phosphorylation of MEK1 (Phospho-Ser217) ([3]; 100 nM afatinib, 24 h): not impacted | phosphorylation of MEK1 (Phospho-Ser221) ([3]; 100 nM afatinib, 24 h): not impacted | phosphorylation of Raf1 (Phospho-Ser338) ([3]; 100 nM afatinib, 24 h): decreased | phosphorylation of Raf1 (Phospho-Tyr341) ([3]; 100 nM afatinib, 24 h): not impacted | phosphorylation of eIF4E (Phospho-Ser209) ([3]; 100 nM afatinib, 24 h): decreased | number of proteins showing decreased phosphorylation compared to control ([3]; 100 nM afatinib, 72 h): 6 | number of proteins showing increased phosphorylation compared to control ([3]; 100 nM afatinib, 72 h): 6
